# Test results reported in patent US10787462B2, “Heterocyclic compound” (TAKEDA PHARMACEUTICAL COMPANY LIMITED, priority 2015, dated 2020).
# Molecular target: T1, human RIPK1 (1-375) (Homo sapiens, UniProt Q13546)
# T1 construct: human RIPK1 (1-375) gene; GST; made in house; host or cells: Sf-9 insect cells
# T1 sequence (Q13546 1-375): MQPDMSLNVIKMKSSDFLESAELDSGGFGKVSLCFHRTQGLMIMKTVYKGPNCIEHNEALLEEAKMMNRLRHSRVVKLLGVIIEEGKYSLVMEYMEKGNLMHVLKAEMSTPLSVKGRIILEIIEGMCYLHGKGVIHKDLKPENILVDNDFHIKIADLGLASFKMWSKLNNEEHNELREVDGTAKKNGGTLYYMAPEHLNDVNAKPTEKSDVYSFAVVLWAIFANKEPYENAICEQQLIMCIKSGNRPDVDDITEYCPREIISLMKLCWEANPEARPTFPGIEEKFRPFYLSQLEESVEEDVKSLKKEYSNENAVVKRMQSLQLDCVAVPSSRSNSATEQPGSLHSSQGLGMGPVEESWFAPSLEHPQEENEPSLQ
# Assay: Human RIPK1 enzyme inhibitory effect (ADP-Glo Kinase Assay)
# Type: biochemical
# Details: well without enzyme = 100% inhibition; for inhibition at 10 µM: read-out: human RIPK1 enzyme inhibitory effect at 10 μM (% inhibition), 10 μM test compound; for human RIPK1 enzyme inhibitory effect at 10 μM (% inhibition): 10 μM test compound
# Experimental: Experimental Example 1: Human RIPK1 Enzyme Inhibitory Effect
# Enzyme was prepared by transducing human RIPK1 (1-375) gene to Sf-9 insect cells, and purifying using GST affinity column, and enzyme activity evaluation was performed using the enzyme. The enzyme was used after preservation at −70° C. The RIPK1 enzyme inhibitory activity of the test compound was measured using ADP-Glo™ Kinase Assay (Promega) according the following experiment methods. The test compound diluted with assay buffer (25 mM HEPES (pH 7.5), 10 mM MgCl2, 0.01% Tween-20, 2 mM DTT) was added to 384 well plate by each 2 μL. Next, RIPK1 enzyme solution diluted with the assay buffer was added thereto by each 2 μL, and the mixture was incubated at room temperature for 20 min. After the incubation, 0.6 mM ATP solution was added thereto by each 2 μL to initiate an enzyme reaction. The mixture was incubated at room temperature for 120 min, and ADP-Glo solution prepared according to Promega protocol was added to the 384 well plate by each 3 μL, and the reaction was performed at room temperature for 40 min. Then, Kinase-Detection solution was added to the 384 well plate by each 6 μL, and the reaction was performed at room temperature for 40 min. After the reaction, the luminescence intensity was measured by plate reader Envision (PerkinElmer).
Compound,inhibition at 10 µM,human RIPK1 enzyme inhibitory effect at 10 μM (% inhibition)
"CN1C(=O)[C@@H](N2CCc3cn(CCc4ccccc4)nc3C2=O)COc2ccccc21 [Example 23, (3S)-5-methyl-3-(7-oxo-2-(2-phenylethyl)-2,4,5,7-tetrahydro-6H-pyrazolo[3,4-c]pyridin-6-yl)-2,3-dihydro-1,5-benzoxazepin-4(5H)-one]",91%,–
"CNC(=O)c1ccc2c(c1)OC[C@H](N1CCc3c(nn(Cc4ccccc4F)c3Cl)C1=O)C(=O)N2C [Example 47, (3S)-3-(3-chloro-2-(2-fluorobenzyl)-7-oxo-2,4,5,7-tetrahydro-6H-pyrazolo[3,4-c]pyridin-6-yl)-N,5-dimethyl-4-oxo-2,3,4,5-tetrahydro-1,5-benzoxazepine-8-carboxamide]",101%,–
"CN1C(=O)[C@@H](N2CCc3cn(Cc4cccc(C#N)c4)nc3C2=O)COc2ccccc21 [Example 29, 3-((6-((3S)-5-methyl-4-oxo-2,3,4,5-tetrahydro-1,5-benzoxazepin-3-yl)-7-oxo-4,5,6,7-tetrahydro-2H-pyrazolo[3,4-c]pyridin-2-yl)methyl)benzonitrile]",99%,–
"Cc1nccnc1Cn1nc2c(c1Cl)CCN([C@H]1COc3ccccc3N(C)C1=O)C2=O [Example 73, (3S)-3-(3-chloro-2-((3-methylpyrazin-2-yl)methyl)-7-oxo-2,4,5,7-tetrahydro-6H-pyrazolo[3,4-c]pyridin-6-yl)-5-methyl-2,3-dihydro-1,5-benzoxazepin-4(5H)-one]",91%,–
"CN1C(=O)[C@@H](N2CCc3cn(Cc4ccccn4)nc3C2=O)COc2ccccc21 [Example 32, (3S)-5-methyl-3-(7-oxo-2-(pyridin-2-ylmethyl)-2,4,5,7-tetrahydro-6H-pyrazolo[3,4-c]pyridin-6-yl)-2,3-dihydro-1,5-benzoxazepin-4(5H)-one]",97%,–
"Cc1c2c(nn1Cc1ccccc1)C(=O)N([C@H]1COc3cc(C(N)=O)ccc3N(C)C1=O)CC2 [Example 88, (3S)-3-(2-benzyl-3-methyl-7-oxo-2,4,5,7-tetrahydro-6H-pyrazolo[3,4-c]pyridin-6-yl)-5-methyl-4-oxo-2,3,4,5-tetrahydro-1,5-benzoxazepine-8-carboxamide]",101%,–
"CN(C)C(=O)c1ccc2c(c1)N(C)C(=O)[C@@H](N1CCc3c(nn(Cc4ccccc4)c3Cl)C1=O)CO2 [Example 90, (3S)-3-(2-benzyl-3-chloro-7-oxo-2,4,5,7-tetrahydro-6H-pyrazolo[3,4-c]pyridin-6-yl)-N,N,5-trimethyl-4-oxo-2,3,4,5-tetrahydro-1,5-benzoxazepine-7-carboxamide]",101%,–
"CN1C(=O)[C@@H](N2CCc3cn(Cc4ccc(C#N)cc4)nc3C2=O)COc2ccccc21 [Example 30, 4-((6-((3S)-5-methyl-4-oxo-2,3,4,5-tetrahydro-1,5-benzoxazepin-3-yl)-7-oxo-4,5,6,7-tetrahydro-2H-pyrazolo[3,4-c]pyridin-2-yl)methyl)benzonitrile]",97%,–
"CN1C(=O)[C@@H](N2CCc3cn(Cc4cnccn4)nc3C2=O)COc2ccccc21 [Example 42, (3S)-5-methyl-3-(7-oxo-2-(pyrazin-2-ylmethyl)-2,4,5,7-tetrahydro-6H-pyrazolo[3,4-c]pyridin-6-yl)-2,3-dihydro-1,5-benzoxazepin-4(5H)-one]",99%,–
"CN1C(=O)[C@@H](N2CCc3c(nn(Cc4ccccc4)c3C#N)C2=O)COc2ccccc21 [Example 12, 2-benzyl-6-((3S)-5-methyl-4-oxo-2,3,4,5-tetrahydro-1,5-benzoxazepin-3-yl)-7-oxo-4,5,6,7-tetrahydro-2H-pyrazolo[3,4-c]pyridine-3-carbonitrile]",100%,–
"CN1C(=O)[C@@H](N2CCc3c(nn(Cc4ccccc4)c3Br)C2=O)COc2ccccc21 [Example 10, (3S)-3-(2-benzyl-3-bromo-7-oxo-2,4,5,7-tetrahydro-6H-pyrazolo[3,4-c]pyridin-6-yl)-5-methyl-2,3-dihydro-1,5-benzoxazepin-4(5H)-one]",98%,–
"CN1C(=O)[C@@H](N2CCc3c(nc(Cc4ccccc4)n3C)C2=O)COc2ccccc21 [Example 56, (3S)-3-(2-benzyl-1-methyl-4-oxo-1,4,6,7-tetrahydro-5H-imidazo[4,5-c]pyridin-5-yl)-5-methyl-2,3-dihydro-1,5-benzoxazepin-4(5H)-one]",96%,–

# Other lines, results leading:
inhibition at 10 µM,human RIPK1 enzyme inhibitory effect at 10 μM (% inhibition),Compound
98%,–,"CN1C(=O)[C@@H](N2CCc3cn(Cc4ccc(S(C)(=O)=O)cc4)nc3C2=O)COc2ccccc21 [Example 164, (3S)-5-methyl-3-(2-(4-(methylsulfonyl)benzyl)-7-oxo-2,4,5,7-tetrahydro-6H-pyrazolo[3,4-c]pyridin-6-yl)-2,3-dihydro-1,5-benzoxazepin-4(5H)-one]"
–,101%,"CNC(=O)c1ccc2c(c1)CCC(N1CCc3c(nn(Cc4ccccc4)c3Cl)C1=O)C(=O)N2C (centres unmarked) [Example 136, 3-(2-benzyl-3-chloro-7-oxo-2,4,5,7-tetrahydro-6H-pyrazolo[3,4-c]pyridin-6-yl)-N,1-dimethyl-2-oxo-2,3,4,5-tetrahydro-1H-1-benzazepine-7-carboxamide]"
–,100%,"CN1C(=O)C(N2CCc3c(nn(Cc4ccccc4F)c3Cl)C2=O)CCc2c1cnn2C (centres unmarked) [Example 131, 6-(3-chloro-2-(2-fluorobenzyl)-7-oxo-2,4,5,7-tetrahydro-6H-pyrazolo[3,4-c]pyridin-6-yl)-1,4-dimethyl-4,6,7,8-tetrahydropyrazolo[4,3-b]azepin-5(1H)-one]"
95%,–,"CN1C(=O)[C@@H](N2CCc3cn(Cc4ccc(F)cc4)nc3C2=O)COc2ccccc21 [Example 157, (3S)-3-(2-(4-fluorobenzyl)-7-oxo-2,4,5,7-tetrahydro-6H-pyrazolo[3,4-c]pyridin-6-yl)-5-methyl-2,3-dihydro-1,5-benzoxazepin-4(5H)-one]"
101%,–,"CNC(=O)c1ccc2c(c1)OC[C@H](N1CCc3c(nn(Cc4ccccc4F)c3C)C1=O)C(=O)N2C [Example 115, (3S)-3-(2-(2-fluorobenzyl)-3-methyl-7-oxo-2,4,5,7-tetrahydro-6H-pyrazolo[3,4-c]pyridin-6-yl)-N,5-dimethyl-4-oxo-2,3,4,5-tetrahydro-1,5-benzoxazepine-8-carboxamide]"
99%,–,"CN1C(=O)[C@@H](N2CCc3cn(Cc4c(Cl)cccc4C#N)nc3C2=O)COc2ccccc21 [Example 165, 3-chloro-2-((6-((3S)-5-methyl-4-oxo-2,3,4,5-tetrahydro-1,5-benzoxazepin-3-yl)-7-oxo-4,5,6,7-tetrahydro-2H-pyrazolo[3,4-c]pyridin-2-yl)methyl)benzonitrile]"
78%,–,"CN1C(=O)[C@@H](N2CCc3cn(CC4(C)COC4)nc3C2=O)COc2ccccc21 [Example 154, (3S)-5-methyl-3-(2-((3-methyloxetan-3-yl)methyl)-7-oxo-2,4,5,7-tetrahydro-6H-pyrazolo[3,4-c]pyridin-6-yl)-2,3-dihydro-1,5-benzoxazepin-4(5H)-one]"
–,91%,"CN1C(=O)C(N2CCc3c(nn(Cc4ccccc4)c3Cl)C2=O)CCc2cnccc21 (centres unmarked) [Example 100, 3-(2-benzyl-3-chloro-7-oxo-2,4,5,7-tetrahydro-6H-pyrazolo[3,4-c]pyridin-6-yl)-1-methyl-1,3,4,5-tetrahydro-2H-pyrido[4,3-b]azepin-2-one]"
